Publication PMC8026324, “In Vitro Antiplasmodial, Heme Polymerization, and Cytotoxicity of Hydroxyxanthone Derivatives” (Journal of Tropical Medicine, 2021)
≈ marks a conversion by molar mass, not a printed value.

How the values were obtained:
WIDR = test system: WIDR; parameters: method as in earlier work; conditions: cited from earlier work
[1] = test system: Plasmodium falciparum FCR-3 (chloroquine-resistant strain); assay: In vitro antiplasmodial activity assay, microscopic method, strain FCR-3; format: cell-based
How it was run: (§1)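 Sorbitol-synchronized ring-stage parasites at 1% parasitemia, 2% haematocrit in RPMI with 10% human O serum, exposed to compound dilutions in triplicate for 72 h at 37 °C. Parasitemia counted on Giemsa smears (≥1,000 erythrocytes); IC50 from growth inhibition by probit analysis.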

[2] = test system: Plasmodium falciparum 3D-7 (chloroquine-sensitive strain); assay: In vitro antiplasmodial activity assay, microscopic method, strain 3D-7; format: cell-based
How it was run: as §1

[3] = test system: Plasmodium falciparum 3D-7; assay: Flow cytometry method (SYBR green I / CD235A-PE); format: cell-based; conditions: 72 hours incubation
Experimental: The Plasmodium falciparum strains of 3D-7 were used in this method. The plasmodium synchronized to obtain the ring stage by adding 5% of D-sorbitol. Plasmodium with 1% parasitemia was cultured in a 96-well microplate. The testing compounds were added in duplicate and incubated at 37°C for 72 hours. The samples were centrifuged with a speed of 1000 rpm for 10 minutes and washed twice in 100 μL of phosphate-buffered saline (PBS). Samples were incubated with 50 μL of 1 : 1000 SYBR green I and 20μL of CD235A-PE for 15 minutes at room temperature. Cells were washed and resuspended in PBS. Data were obtained using a FACSCalibur with the acquisition of 1,00,000 events per sample. Initial gating was done with uninfected and unstained erythrocytes to account for erythrocyte autofluorescence. The control plasmodium-infected erythrocyte was referred as 100% growth to calculate the percentage of growth inhibition after treated with testing compound.

SMILES: O=c1c2c(O)cccc2oc2cc(O)cc(O)c12 [HX1, 1,6,8-trihydroxyxanthone]
- cytotoxicity on WIDR (in words) (WIDR): weak
- IC50 on WIDR cell line (WIDR; in vitro cytotoxicity): 61.9 µg/mL (≈ 253 µM)
- inhibition at 6.39 µM ([1]; Plasmodium falciparum, FCR3, 6.39 μM, read-out: Growth inhibition of P. falciparum Strain FCR-3): 50.9 ± 2.31%
- inhibition at 12.8 µM ([1]; Plasmodium falciparum, FCR3, 12.8 μM, read-out: Growth inhibition of P. falciparum Strain FCR-3): 55.2 ± 3.59%
- inhibition at 25.59 µM ([1]; Plasmodium falciparum, FCR3, 25.59 μM, read-out: Growth inhibition of P. falciparum Strain FCR-3): 60.2 ± 2.74%
- inhibition at 51.19 µM ([1]; Plasmodium falciparum, FCR3, 51.19 μM, read-out: Growth inhibition of P. falciparum Strain FCR-3): 64.4 ± 0.671%
- inhibition at 102.38 µM ([1]; Plasmodium falciparum, FCR3, 102.38 μM, read-out: Growth inhibition of P. falciparum Strain FCR-3): 73.7 ± 4.28%
- IC50 ([1]; Plasmodium falciparum, FCR3, 72 hours incubation, microscopic method, read-out: IC50 on P. falciparum FCR-3): 6.76 ± 2.38 µM
- antiplasmodial activity category on P. falciparum FCR-3 ([1]; category by IC50): good (good (IC50 1–20 μM))
- inhibition at 6.39 µM ([2]; Plasmodium falciparum, 6.39 μM, read-out: Growth inhibition of P. falciparum Strain 3D-7): 47.4 ± 5.86%
- inhibition at 12.8 µM ([2]; Plasmodium falciparum, 12.8 μM, read-out: Growth inhibition of P. falciparum Strain 3D-7): 61.5 ± 0.71%
- inhibition at 25.59 µM ([2]; Plasmodium falciparum, 25.59 μM, read-out: Growth inhibition of P. falciparum Strain 3D-7): 64.7 ± 0.861%
- inhibition at 51.19 µM ([2]; Plasmodium falciparum, 51.19 μM, read-out: Growth inhibition of P. falciparum Strain 3D-7): 69 ± 0.888%
- inhibition at 102.38 µM ([2]; Plasmodium falciparum, 102.38 μM, read-out: Growth inhibition of P. falciparum Strain 3D-7): 75.86 ± 0.471%
- IC50 ([2]; Plasmodium falciparum, 72 hours incubation, microscopic method, read-out: IC50 on P. falciparum 3D-7): 6.1 ± 2.01 µM
- antiplasmodial activity category on P. falciparum 3D-7 ([2]; category by IC50): good (good (IC50 1–20 μM))
- inhibition activity of P. falciparum 3D-7 growth (flow cytometry) ([3]; 102.38 μM): showed inhibition activity
- inhibition at 204.75 µM ([3]; Plasmodium falciparum, 204.75 μM, read-out: inhibition activity of P. falciparum 3D-7 growth (flow cytometry)): > 90%
